Test results from PubChem BioAssay (NCI).
Values joined by “and” are separate entries in the source; they are usually repeats but may differ in a detail not shown here. Equal entries are not always repeated.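 Values below derive from 48-hour exposures of cells grown in 96-well plates, with endpoints linearly interpolated between the two concentrations bracketing the appropriate inhibition level. At the GI50, growth is halved. At the TGI there is no net growth.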 Where a SMILES comes first, the peptide text is derived from it. [ ]: non-standard residue; d: D form. The star is where a group is joined. Bn2Val = CC(C)[C@@H](C(=O)*)N(Cc1ccccc1)Cc1ccccc1; NH(3,4-diMeO-benzyl) = COc1ccc(CN*)cc1OC; NMeV = CN[C@H](C(=O)O)C(C)C; dNMeA = CN[C@H](C)C(=O)O

Assays:
Assay in all cases: DTP human tumour cell line panel, 48 h
COLO 205 colon = system: COLO 205 colon
OVCAR-4 ovarian = system: OVCAR-4 ovarian
HOP-62 NSCLC = system: HOP-62 NSCLC
NCI/ADR-RES ovarian = system: NCI/ADR-RES ovarian
M14 melanoma = system: M14 melanoma
RXF 393 renal = system: RXF 393 renal
TK-10 renal = system: TK-10 renal

Compound	GI50 (COLO 205 colon) [µM]	TGI (COLO 205 colon)	GI50 (OVCAR-4 ovarian) [µM]	TGI (OVCAR-4 ovarian)	GI50 (HOP-62 NSCLC) [µM]	TGI (HOP-62 NSCLC)	GI50 (NCI/ADR-RES ovarian) [µM]	TGI (NCI/ADR-RES ovarian)	GI50 (M14 melanoma) [µM]	TGI (M14 melanoma)	GI50 (RXF 393 renal) [µM]	TGI (RXF 393 renal)	GI50 (TK-10 renal) [µM]	TGI (TK-10 renal)
O=C1c2ccccc2C(=O)c2c1ccc1[nH]c(CCl)nc21	2.54	8.62 µM	3.05	11.2 µM	3.12	9.42 µM	2.76	10.4 µM	9.97	22.8 µM	1.86	6.17 µM	2.91	9.79 µM
Cn1cc(C2=C(c3ccc(OC[C@@H](O)CO)cc3)C(=O)NC2=O)c2ccccc21	> 25	> 25 µM	> 25	> 25 µM	> 25	> 25 µM	> 25	> 25 µM	> 25	> 25 µM	16.4	> 25 µM	> 25	> 25 µM
CN(C)c1ccc2c(c1)oc(=O)c1ccccc12		24.7 µM		28.2 µM		65.6 µM		44.9 µM		26.5 µM		19.3 µM		40 µM
COc1cc2c(c(OC)c1OC)-c1ccc(NCc3ccccc3)c(=O)cc1[C@@H](NC(C)=O)CC2	0.277	0.638 µM	0.989	45.9 µM	0.413	16.9 µM	18.7	> 100 µM	0.359	23.2 µM			4.82	> 100 µM
Cc1c(N2C(=O)/C(=C\c3ccccc3O)N=C2c2ccccc2)c(=O)n(-c2ccccc2)n1C	> 100	> 100 µM	> 100	> 100 µM	19.4	46.1 µM	76.3	> 100 µM	> 100	> 100 µM	53.8	> 100 µM	33.4	> 100 µM
N#Cc1nc(-c2ccc(F)cc2)oc1S(=O)(=O)N1CCOCC1			3.08	10.2 µM	10.8	37.9 µM	13.4	47.2 µM			1.49	2.92 µM	1.75	3.26 µM
CCOC(=O)c1cc(-c2ccc([N+](=O)[O-])cc2)n(-c2ccc(C(=O)O)c(O)c2)c1C	1.6	3.84 µM	4.11	19.7 µM	7.55	23.3 µM	3.8	38.6 µM	4.26	15.2 µM	5.95	20.3 µM	6.18	20 µM
CC1=C2[C@@H](CC1)[C@]1(C)O[C@@](C(C)C)(C[C@H]1OC(=O)[C@H](C)O)[C@H]2OC(=O)/C=C/c1ccccc1	16.9	36.2 µM	10.3	24.9 µM	13.9	29.3 µM	0.428	16 µM	13.4	32.5 µM	0.111	2.41 µM	16.3	32 µM
COc1nc2c(cc1S(=O)(=O)c1ccccc1)CCc1c-2cnn1-c1ccccc1Cl	9.07	> 100 µM	7.3	> 100 µM	> 100	> 100 µM	8.24	> 100 µM	> 100	> 100 µM	6.74	> 100 µM		
C[C@@H]1Cc2c([nH]c3ccccc23)[C@@H](c2c(F)cc(/C=C/C(=O)O)cc2F)N1CC(C)(C)F	16.5	39.8 µM	15.2	52.8 µM	15.5	31.7 µM	14.7	36.5 µM	14	34.5 µM	11.7	26.2 µM	15.9	39.4 µM
Cc1c(Cl)cccc1Nc1ncccc1C(=O)O	93.7	> 100 µM	90.6	> 100 µM	> 100	> 100 µM	78.7	> 100 µM	> 100	> 100 µM	> 100	> 100 µM	> 100	> 100 µM
ClCc1ccccc1CSc1ncnc2nc[nH]c12	> 60	> 60 µM	> 60	> 60 µM	> 60	> 60 µM	> 60	> 60 µM	> 60	> 60 µM	> 60	> 60 µM		
COc1cc2c(NCCCCCCO[N+](=O)[O-])ncnc2c(OC)c1OC		51.6 µM		> 100 µM		66.7 µM		51.3 µM		36.8 µM		75.2 µM		49.4 µM
O=C(/C=C/c1cccs1)c1ccc(Cl)cc1		> 100 µM				> 100 µM		> 100 µM						> 100 µM
O=[n+]1c(CBr)c(CBr)n([O-])c2ccccc21	2.04	3.99 µM	6.81	20.4 µM	17.8	37.5 µM	14.5	33.7 µM	4.65	17.6 µM	4.66	16.9 µM	1.97	4.17 µM
Clc1ccc(Cc2nc3cc4ccccc4cc3[nH]2)cc1	8.64	> 100 µM	22.7	> 100 µM	10.2	30.8 µM	22.9	> 100 µM	53.1	> 100 µM	> 100	> 100 µM	10.6	38.4 µM
NS(=O)(=O)c1ccc(-n2nc(-c3ccc(Br)cc3)ccc2=O)cc1	> 10	> 10 µM	> 10	> 10 µM	> 10	> 10 µM	> 10	> 10 µM	> 10	> 10 µM	> 10	> 10 µM	> 10	> 10 µM
CN(C)S(=O)(=O)Nc1ccccn1		> 100 µM		> 100 µM		> 100 µM		> 100 µM		> 100 µM		> 100 µM		> 100 µM
CCN1CCN(c2nc(NCCNc3ccnc4cc(Cl)ccc34)c3ccccc3n2)CC1	0.505	2.07 µM	1.78	4.45 µM	1.95	6.43 µM	4.57	25.8 µM	1.59	3.36 µM	1.26	2.77 µM	2.42	6.02 µM
Clc1cccc(NC=Nc2ccc(-c3nc4ccccc4s3)cc2)c1	12.2	39.9 µM			42.3	> 50 µM	13.2	32 µM	14.8	29.7 µM			21	> 50 µM

Compound	GI50 (COLO 205 colon) [µM]	TGI (COLO 205 colon)	GI50 (OVCAR-4 ovarian) [µM]	TGI (OVCAR-4 ovarian)	GI50 (HOP-62 NSCLC) [µM]	TGI (HOP-62 NSCLC)	GI50 (NCI/ADR-RES ovarian) [µM]	TGI (NCI/ADR-RES ovarian)	GI50 (M14 melanoma) [µM]	TGI (M14 melanoma)	GI50 (RXF 393 renal) [µM]	TGI (RXF 393 renal)	GI50 (TK-10 renal) [µM]	TGI (TK-10 renal)
COc1ccc(CNC(=O)[C@@H](C)N(C)C(=O)[C@@H]2CCCN2C(=O)[C@H](C(C)C)N(C)C(=O)[C@@H](NC(=O)[C@H](C(C)C)N(Cc2ccccc2)Cc2ccccc2)C(C)C)cc1OC (Bn2Val-V[NMeV]P[dNMeA]-{NH(3,4-diMeO-benzyl)})	5.86	19.8 µM and 35.9 µM	7.54	50 µM and 42.2 µM	14.7	16.5 µM and 33.4 µM	6.35	32.9 µM and 40.1 µM	63.2	16.9 µM and > 100 µM	3.61	12.8 µM and 15 µM		50 µM and 61.6 µM
OC(c1cccc(C(F)(F)F)c1)c1cnccc1NC1CCCCCC1 (stereo not given)	1.73	3.37 µM	1.83	6.33 µM	1.89	3.63 µM	1.85	4.18 µM	1.8	3.64 µM	1.44	2.89 µM	1.74	3.24 µM
Fc1ccc(-c2nn(-c3ccccc3)cc2-c2nc3ccccc3o2)cc1	15.1	30.5 µM	9.12	> 100 µM	4.95	33.4 µM	3.57	> 100 µM	3.91	15.1 µM	31.6	> 100 µM		
O=C1c2ccccc2-c2c1c1cc3c(cc1c(=O)n2CCCCl)OCO3			> 100	> 100 µM	12.3	28.6 µM	24.9	> 100 µM	65.3	> 100 µM			30.9	75.2 µM
O=C1CCC(NC(=O)c2ccccc2)C(=O)N1 (stereo not given)		> 100 µM		> 100 µM		> 100 µM		> 100 µM		> 100 µM		> 100 µM		> 100 µM
CC1=C(CCCOC(=O)NCCCl)C2=C(C)C3(CC3)[C@@](C)(O)C(=O)C2=C1	2.06	6.65 µM	2.7	> 100 µM	2.37	7.42 µM	2.95	> 100 µM	2.46	8.58 µM			3.55	> 100 µM
CN1CCN(Cc2ccc(NC(=O)c3cncc(C#Cc4cnc(N)c5ccccc45)c3)cc2C(F)(F)F)CC1	0.405	0.948 µM	0.117	0.738 µM	0.324	1.25 µM	0.556	1.21 µM	0.133	0.551 µM	0.163	0.563 µM	0.466	1 µM
CCCCCCCCCCCCOC1C(CNCC2OC3OC(C)(C)OC3C2NC(=O)Nc2ccc(C(=O)OCC)cc2)OC2OC(C)(C)OC21 (stereo not given)	1.99	3.76 µM	1.87	4.25 µM	3.55	13.5 µM	2.19	4.35 µM	1.77	3.38 µM	2.73	4.8 µM	4.13	15.2 µM
O=C(O)/C=C/C(=O)Nc1ncn[nH]1		> 100 µM		> 100 µM		> 100 µM		> 100 µM		> 100 µM		> 100 µM		> 100 µM
COC(=O)c1c2c(c(C)[n+]([O-])c1C)C(=O)C=CC2=O	1.64	3.35 µM	1.2	2.47 µM	0.744	2.27 µM	2.33	7.78 µM	1.78	3.45 µM	1.42	2.88 µM	2.74	7.74 µM
S=C1NCCN1C1=Nc2ccccc2CO1	> 100	> 100 µM	> 100	> 100 µM	> 100	> 100 µM	> 100	> 100 µM	> 100	> 100 µM			> 100	> 100 µM
COc1cccc(-c2nc(-c3cnccn3)n(Cc3ccccc3)n2)c1		> 100 µM		> 100 µM		> 100 µM				> 100 µM		64 µM		> 100 µM
COc1cccc(-c2nn(-c3ccccc3)cc2-c2ccnc(NCCCNS(=O)(=O)c3cccc(F)c3)c2)c1	2.41	9.39 µM	3.28	> 100 µM	10.4	> 100 µM	3.05	> 100 µM	3.3	> 100 µM	4.18	> 100 µM	5.32	> 100 µM
CCOc1ccc2nc(NC(=O)/C(CC(=O)CC(C3=C(O)c4ccccc4CC3=O)c3ccccc3)=N\O)sc2c1 (stereo not given)		> 100 µM		> 100 µM				> 100 µM		> 100 µM		> 100 µM		
CN1CCN(C(=S)N(C)C(=O)c2ccc(Cl)cc2)CC1		> 100 µM		> 100 µM						> 100 µM		> 100 µM		> 100 µM
COc1ccc(CNC(=O)COc2ccc(/C=N/Nc3nc4ccccc4s3)cc2)cc1			1.56	5 µM	2.22	11.6 µM	3.12	19.4 µM	4.69	> 100 µM	1.75	3.76 µM	3.49	16.3 µM
CCOC(=O)c1c(N)n(-c2ccccc2)c(=S)n(-c2ccccc2)c1=O		> 100 µM		> 100 µM						> 100 µM		> 100 µM		> 100 µM
COc1ccc(-n2cc(-c3ccc(OC)c(OC)c3)[nH]c2=S)cc1Cl	> 100	> 100 µM	> 100	> 100 µM	30.2	> 100 µM	> 100	> 100 µM	> 100	> 100 µM			> 100	> 100 µM
COc1ccc(CN2CCCC(C(=O)c3ccc(C(F)(F)F)cc3)C2)c(O)c1 (stereo not given)	19.3	36.7 µM	29.2	> 100 µM	29.1	> 100 µM	26.7	> 100 µM			16.9	71.9 µM	31.3	88.7 µM
